# According to article PMC5643462, “Encrypted Antimicrobial Peptides from Plant Proteins” (Scientific Reports, 2017):
# No end group written: not given here.
# Assays:
# Bacillus cereus [1] = experiment: microbe, parasite or virus in culture
# Description: (§1) The susceptibility test of microorganisms was performed to evaluate the inhibitory activity of the IAPs. Protocols M7-A10[50], M27-A3[51] and M38-A2[52] from Clinical & Laboratory Standards Institute (CLSI) were used for bacteria, yeasts and filamentous fungi tests, respectively. Briefly, different concentration of IAPs (256-0.5 µM) were tested against 16 microorganisms, in a final volume of 100 µL. Media conditions, final cell concentration and incubation conditions are presented in Supplementary Material 07, Table S5. Three biological repetitions, with 2 technical replicates each, were performed for each test, on polystyrene flat-bottom 96 wells microplates. The minimum inhibitory concentration (MIC) was defined as the concentration that no cells/hyphae were detected when visualized by optical microscopy.
# (§2) Supplementary Material 07, Table S5
# (§3) Table S5. Microorganisms and growth conditions.
# Bacillus subtilis [2] = experiment: microbe, parasite or virus in culture
# Description: as §1, §2, §3
# Candida albicans = experiment: microbe, parasite or virus in culture; conditions: ATCC 90028; RPMI 1640 pH 7.0; 37 °C, 48 h; start 2.5 x 10^3 cells; 256-0.5 µM; mean ± SD of 3 biological repetitions (SD 0 not displayed); no cells seen by optical microscopy; N/A = no antimicrobial activity observed
# Description: as §1, §2, §3
# Cryptococcus neoformans = experiment: microbe, parasite or virus in culture; conditions: ATCC 28957; RPMI 1640 pH 7.0; 37 °C, 72 h; start 2.5 x 10^3 cells; 256-0.5 µM; mean ± SD of 3 biological repetitions (SD 0 not displayed); N/A = no antimicrobial activity observed
# Description: as §1, §2, §3
# Erwinia carotovora [3] = experiment: microbe, parasite or virus in culture; conditions: 24 h
# Description: as §1, §2, §3
# Escherichia coli [4] = experiment: microbe, parasite or virus in culture
# Description: as §1, §2, §3
# Fusarium oxysporum = experiment: microbe, parasite or virus in culture; conditions: RPMI 1640 pH 7.0; 28 °C, 48 h; start 2.5 x 10 3; 256-0.5 µM; mean ± SD of 3 biological repetitions (SD 0 not displayed); N/A = no antimicrobial activity observed
# Description: as §1, §2, §3
# [5] = tested on: Pseudomonas syringae pv. tabaci; experiment: microbe, parasite or virus in culture; conditions: 24 h
# Description: as §1, §2, §3
# Ramularia areola = experiment: microbe, parasite or virus in culture; conditions: RPMI 1640 pH 7.0; 25 °C, 120 h; start 2.5 x 10 3; 256-0.5 µM; mean ± SD of 3 biological repetitions (SD 0 not displayed); N/A = no antimicrobial activity observed
# Description: as §1, §2, §3
# Staphylococcus aureus [6] = experiment: microbe, parasite or virus in culture
# Description: as §1, §2, §3
# Trichoderma asperellum = experiment: microbe, parasite or virus in culture; conditions: RPMI 1640 pH 7.0; 28 °C, 48 h; start 2.5 x 10 3; 256-0.5 µM; mean ± SD of 3 biological repetitions (SD 0 not displayed); N/A = no antimicrobial activity observed
# Description: as §1, §2, §3
# Xanthomonas campestris [7] = experiment: microbe, parasite or virus in culture; conditions: 24 h
# Description: as §1, §2, §3
# [8] = tested on: Fusarium oxysporum f.sp. vasinfectum; conditions: RPMI 1640 pH 7.0; 28 °C, 72 h; start 2.5 x 10 3; 256-0.5 µM; mean ± SD of 3 biological repetitions (SD 0 not displayed); N/A = no antimicrobial activity observed
# Description: as §1, §2, §3
# Fusarium solani = conditions: RPMI 1640 pH 7.0; 28 °C, 48 h; start 2.5 x 10 3; 256-0.5 µM; mean ± SD of 3 biological repetitions (SD 0 not displayed); N/A = no antimicrobial activity observed
# Description: as §1, §2, §3
# Rhizoctonia solani = conditions: RPMI 1640 pH 7.0; 28 °C, 48 h; start 2.5 x 10 3; 256-0.5 µM; mean ± SD of 3 biological repetitions (SD 0 not displayed); N/A = no antimicrobial activity observed
# Description: as §1, §2, §3
# human red blood cells = experiment: Cytotoxicity: hemolysis of human red blood cells; format: cell-based; conditions: SC50 = IAP concentration that at least 50% of red blood cells remain intact; 128 µM–0.5 µM tested; PBS, 30 minutes, 37 °C; absorbance 540 nm
# Description: The cytotoxicity of the selected IAPS was performed using human red blood cells in strict accordance with relevant guidelines and regulations (Ethical committee – UnB # 1.939.989). Different concentrations of IAPs (128 µM–0.5 µM) were incubated with a final concentration of 2.5 × 10^5 red blood cells.mL^−1. Briefly, 100 µL of red blood cells was incubated with 100 µL of different concentrations of each IAP, prepared in PBS, for 30 minutes at 37 °C, with constant shaking at 120 rpm. PBS and Triton X-100 0.1% (v/v) were used as negative and positive controls, respectively. After incubation, the solution was centrifuged at 900 × g for five minutes followed by transferring 50 µL of the supernatant to flat-bottom polystyrene 96-well micro plates containing 50 µL of PBS. Microplate reading was performed at a BioTek Multireader, using a wavelength of 540 nm. All tests were performed in 3 biological replicates, composed of 3 biological repetitions each. The obtained data was subtracted by the negative control and relative to the positive control, defined as 100% lysis.
# Pseudomonas aeruginosa [9] = experiment: microbe, parasite or virus in culture; conditions: Pseudomonas aeruginosa, ATCC27853, 24 h, read-out: Minimum inhibitory concentration, Pseudomonas aeruginosa
# Description: as §1, §2, §3
# Escherichia coli [10] = experiment: Microbicidal activity (minimal killing concentration), plating on agar; format: cell-based, Escherichia coli ATCC 25922; conditions: 10 µL of MIC and raising concentrations up to 256 µM plated on Mueller-Hinton agar; 37 °C, 24 h; no growth; mean ± SD, 3 biological replicates
# Description: (§4) The microbicidal activity of the IAPS was also evaluated. […] YPD agar and Mueller-Hinton agar were used for fungi/yeasts and bacteria, respectively. Meanwhile, susceptibility microplates were incubated again to evaluate if there would be any growing after a longer period. For both approaches, the minimal killing concentration (MKC) was defined as the concentration that no growth was observed after incubation. Three biological replicates were performed for each test.
# as §2, §3
# (§5) Microorganisms Incubation Incubation Starting cell Growth Medium
# Pseudomonas aeruginosa [11] = experiment: as above; format: cell-based, Pseudomonas aeruginosa ATCC 27853; conditions: 10 µL of MIC and raising concentrations up to 256 µM plated on Mueller-Hinton agar; 37 °C, 24 h; no growth; mean ± SD, 3 biological replicates
# Description: as §4, §2, §3, §5
# Bacillus subtilis [12] = experiment: as above; format: cell-based, Bacillus subtilis ATCC 23857; conditions: 10 µL of MIC and raising concentrations up to 256 µM plated on Mueller-Hinton agar; 37 °C, 24 h; no growth; mean ± SD, 3 biological replicates
# Description: as §4, §2, §3, §5
# Bacillus cereus [13] = experiment: as above; format: cell-based, Bacillus cereus ATCC 14579; conditions: 10 µL of MIC and raising concentrations up to 256 µM plated on Mueller-Hinton agar; 37 °C, 24 h; no growth; mean ± SD, 3 biological replicates
# Description: as §4, §2, §3, §5
# Staphylococcus aureus [14] = experiment: as above; format: cell-based, Staphylococcus aureus ATCC 25923; conditions: 10 µL of MIC and raising concentrations up to 256 µM plated on Mueller-Hinton agar; 37 °C, 24 h; no growth; mean ± SD, 3 biological replicates
# Description: as §4, §2, §3, §5
# (§6) Temperature (°C) Time (h) concentration
# (§7) Erwinia carotovora 28 24 5.0 x 10 5 Mueller -Hinton
# (§8) Xanthomonas campestris pv. citri 28 24 5.0 x 10 5 Mueller -Hinton
# (§9) Pseudomonas syringae pv. tabaci 28 24 5.0 x 10 5 Mueller -Hinton
# Erwinia carotovora [15] = experiment: as above; format: cell-based; conditions: 10 µL of MIC and raising concentrations up to 256 µM plated on Mueller-Hinton agar; 28 °C, 24 h; no growth; mean ± SD, 3 biological replicates
# Description: as §4, §2, §3, §5, §6, §7, §8, §9
# [16] = tested on: Pseudomonas syringae pv. tabaci; experiment: as above; format: cell-based; conditions: 10 µL of MIC and raising concentrations up to 256 µM plated on Mueller-Hinton agar; 28 °C, 24 h; no growth; mean ± SD, 3 biological replicates
# Description: as §4, §2, §3, §5, §6, §7, §8, §9
# Xanthomonas campestris [17] = experiment: as above; format: cell-based, Xanthomonas campestris pv. citri; conditions: 10 µL of MIC and raising concentrations up to 256 µM plated on Mueller-Hinton agar; 28 °C, 24 h; no growth; mean ± SD, 3 biological replicates
# Description: as §4, §2, §3, §5, §6, §7, §8, §9
# [18] = Mueller-Hinton, 28 °C, start 5.0 x 10^5 cells, 256-0.5 µM, mean ± SD of 3 biological repetitions (SD 0 not displayed), N/A = no antimicrobial activity observed
molecule,measurement,setting,value
FFGHIWHGARTLFRDVFA-NH2 [Cs02],"Minimum inhibitory concentration, Bacillus cereus","Bacillus cereus [1]; ATCC 14579, Mueller-Hinton, 37 °C, 24 h, start 5.0 x 10^5 cells, 256-0.5 µM, mean ± SD of 3 biological repetitions (SD 0 not displayed), N/A = no antimicrobial activity observed",64.0 µM
same,"Minimum inhibitory concentration, Bacillus subtilis","Bacillus subtilis [2]; ATCC 23857, Mueller-Hinton, 37 °C, 24 h, start 5.0 x 10^5 cells, 256-0.5 µM, mean ± SD of 3 biological repetitions (SD 0 not displayed), N/A = no antimicrobial activity observed",3.33 ± 1.15 µM
same,"Minimum inhibitory concentration, Candida albicans",Candida albicans,32.0 µM
same,"Minimum inhibitory concentration, Cryptococcus neoformans",Cryptococcus neoformans,32.0 µM
same,"Minimum inhibitory concentration, Erwinia carotovora",Erwinia carotovora [3]; [18],32.0 µM
same,"Minimum inhibitory concentration, Escherichia coli","Escherichia coli [4]; ATCC 25922, Mueller-Hinton, 37 °C, 24 h, start 5.0 x 10^5 cells, 256-0.5 µM, mean ± SD of 3 biological repetitions (SD 0 not displayed), N/A = no antimicrobial activity observed",8.0 µM
same,"Minimum inhibitory concentration, Fusarium oxysporum",Fusarium oxysporum,16.0 µM
same,"Minimum inhibitory concentration, Pseudomonas syringae pv. tabaci",[5]; [18],4.0 µM
same,"Minimum inhibitory concentration, Ramularia areola",Ramularia areola,16.0 µM
same,"Minimum inhibitory concentration, Staphylococcus aureus","Staphylococcus aureus [6]; ATCC 25923, Mueller-Hinton, 37 °C, 24 h, start 5.0 x 10^5 cells, 256-0.5 µM, mean ± SD of 3 biological repetitions (SD 0 not displayed), N/A = no antimicrobial activity observed",8.0 µM
same,"Minimum inhibitory concentration, Trichoderma asperellum",Trichoderma asperellum,8.0 µM
same,"Minimum inhibitory concentration, Xanthomonas campestris","Xanthomonas campestris [7]; pv. citri, Mueller-Hinton, 28 °C, start 5.0 x 10^5 cells, 256-0.5 µM, mean ± SD of 3 biological repetitions (SD 0 not displayed), N/A = no antimicrobial activity observed",32.0 µM
same,"Minimum inhibitory concentration, Fusarium oxysporum f.sp. vasinfectum",[8],13.33 ± 4.61 µM
same,"Minimum inhibitory concentration, Fusarium solani",Fusarium solani,8.0 µM
same,"Minimum inhibitory concentration, Rhizoctonia solani",Rhizoctonia solani,32.0 µM
same,Hemolytic activity of human red blood cells (%) SC50,human red blood cells,>128 µM
CNC(C)C1CCC(N)C(OC2C(N)CC(N)C(OC3OCC(C)(O)C(NC)C3O)C2O)O1 (centres unmarked) [Gentamicin],MIC,"Bacillus cereus [1]; Bacillus cereus, ATCC14579, 24 h, read-out: Minimum inhibitory concentration, Bacillus cereus",8.37 µM
same,MIC,"Bacillus subtilis [2]; Bacillus subtilis, ATCC23857, 24 h, read-out: Minimum inhibitory concentration, Bacillus subtilis",0.033 µM
same,MIC,"Erwinia carotovora [3]; Pectobacterium carotovorum, read-out: Minimum inhibitory concentration, Erwinia carotovora",0.53 µM
same,MIC,"Escherichia coli [4]; Escherichia coli, ATCC25922, 24 h, read-out: Minimum inhibitory concentration, Escherichia coli",0.52 µM
same,MIC,Pseudomonas aeruginosa [9],0.13 µM
same,MIC,"[5]; Pseudomonas syringae, read-out: Minimum inhibitory concentration, Pseudomonas syringae pv. tabaci",0.52 µM
same,MIC,"Staphylococcus aureus [6]; Staphylococcus aureus, ATCC25923, 24 h, read-out: Minimum inhibitory concentration, Staphylococcus aureus",0.26 µM
same,MIC,"Xanthomonas campestris [7]; Xanthomonas campestris, read-out: Minimum inhibitory concentration, Xanthomonas campestris",0.53 µM
same,"Minimum microbicidal concentration, Escherichia coli",Escherichia coli [10],0.52 ± 0.0 µM
same,"Minimum microbicidal concentration, Pseudomonas aeruginosa",Pseudomonas aeruginosa [11],0.52 ± 0.0 µM
same,"Minimum microbicidal concentration, Bacillus subtilis",Bacillus subtilis [12],0.033 ± 0.0 µM
same,"Minimum microbicidal concentration, Bacillus cereus",Bacillus cereus [13],8.37 ± 0.0 µM
same,"Minimum microbicidal concentration, Staphylococcus aureus",Staphylococcus aureus [14],0.52 ± 0.0 µM
same,"Minimum microbicidal concentration, Erwinia carotovora",Erwinia carotovora [15],0.53 ± 0.0 µM
same,"Minimum microbicidal concentration, Pseudomonas syringae pv. tabaci",[16],0.52 ± 0.0 µM
same,"Minimum microbicidal concentration, Xanthomonas campestris",Xanthomonas campestris [17],0.53 ± 0.0 µM
